{"source": "patent US6677460B1", "about": "“Aromatic carboxylic acid bicyclic sulfur compounds” (Idemitsu Kosan Company, Limited, priority 1993, dated 2004); further: ranges in brackets are in %", "type_in_all_cases": "in vivo", "conditions_in_all_cases": "100 g/hectare, 20th day after treatment", "key": {"[1]": {"test_system": "corn", "test": "Upland soil treatment test (6), phytotoxicity", "procedure": "(§1) 90 Parts by weight of the above carrier and 10 parts by weight of each of Compounds obtained in the above Preparation Examples were uniformly pulverized and mixed to obtain herbicides. Further, for Herbicide Comparative Examples, comparative herbicides were prepared by uniformly pulverizing and mixing 90 parts by weight of the above carrier and 10 parts by weight of each of the following Compounds x, y, A, B and C.\n(§2) (6) Biological Test (Upland Soil Treatment Test, Herbicide Examples 27˜42 and Comparative Example 10).\n(§3) Seeds of weeds such as large crabgrass, barnyard grass, green foxtail, cocklebur , velvetleaf and slender amaranth and seeds of corn, wheat and barley were sown in 1/5,000-are Wagner pots filled with upland soil, and covered with upland soil. Then, a predetermined amount of the herbicide prepared in the above (1) was suspended in water and uniformly sprayed onto the soil surface. Thereafter, the plants were grown in the greenhouse, and on 20th day after the treatment, the herbicide was evaluated f or herbicidal efficacy.\n(§4) The dosage of each herbicide is indicated as an amount of the active ingredient per hectare. Further, air-dried weight were measured and the herbicidal efficacy and the phytotoxicity to corn are shown on the basis of the ratings described below."}, "[2]": {"test_system": "slender amaranth", "test": "Upland soil treatment test (6)", "procedure": "as §1, §2, §3, §4"}, "[3]": {"test_system": "velvetleaf", "test": "Upland soil treatment test (6)", "procedure": "as §1, §2, §3, §4"}, "[4]": {"test_system": "barnyard grass", "test": "Upland soil treatment test (6)", "procedure": "as §1, §2, §3, §4"}, "[5]": {"test_system": "large crabgrass", "test": "Upland soil treatment test (6)", "procedure": "as §1, §2, §3, §4"}, "[6]": {"test_system": "cocklebur", "test": "Upland soil treatment test (6)", "procedure": "as §1, §2, §3, §4"}, "[7]": {"test_system": "green foxtail", "test": "Upland soil treatment test (6)", "procedure": "as §1, §2, §3, §4"}}}
{"smiles": "CCn1ncc(C(=O)c2ccc3c(c2C)CCCS3(=O)=O)c1O", "note": "[Compound 48, 5-Methyl-6-(1-ethyl-5-hydroxypyrazol-4-yl)carbonylthiochroman-1,1-dioxide]", "values": [{"measurement": "Phytotoxicity to corn", "setting": "[1]", "result": "0 (100)"}, {"measurement": "Herbicidal efficacy (F): slender amaranth", "setting": "[2]", "result": "5 (0)"}, {"measurement": "Herbicidal efficacy (E): velvetleaf", "setting": "[3]", "result": "5 (0)"}, {"measurement": "Herbicidal efficacy (B): barnyard grass", "setting": "[4]", "result": "5 (0)"}, {"measurement": "Herbicidal efficacy (A): large crabgrass", "setting": "[5]", "result": "5 (0)"}, {"measurement": "Herbicidal efficacy (D): cocklebur", "setting": "[6]", "result": "1 (61-80)"}, {"measurement": "Herbicidal efficacy (C): green foxtail", "setting": "[7]", "result": "1 (61-80)"}]}
{"smiles": "CCCS(=O)(=O)Oc1c(C(=O)c2cc(C)c3c(c2C)C(C)(C)CCS3(=O)=O)c(C)nn1C", "note": "[Compound 30, 4,4,5,8-tetramethyl-6-(1,3-dimethyl-5-n-propanesulfonyloxypyrazol-4-yl)carbonylthiochroman-1,1-dioxide]", "values": [{"measurement": "Phytotoxicity to corn", "setting": "[1]", "result": "0 (100)"}, {"measurement": "Herbicidal efficacy (F): slender amaranth", "setting": "[2]", "result": "5 (0)"}, {"measurement": "Herbicidal efficacy (E): velvetleaf", "setting": "[3]", "result": "5 (0)"}, {"measurement": "Herbicidal efficacy (B): barnyard grass", "setting": "[4]", "result": "4 (1-20)"}, {"measurement": "Herbicidal efficacy (A): large crabgrass", "setting": "[5]", "result": "5 (0)"}, {"measurement": "Herbicidal efficacy (D): cocklebur", "setting": "[6]", "result": "1 (61-80)"}, {"measurement": "Herbicidal efficacy (C): green foxtail", "setting": "[7]", "result": "3 (21-40)"}]}
{"smiles": "CCn1ncc(C(=O)c2cc(C)c3c(c2C)C(C)CCS3(=O)=O)c1O", "note": "(stereo not shown) [Compound 44, 4,5,8-trimethyl-6-(1-ethyl-5-hydroxypyrazol-4-yl)carbonylthiochroman-1,1-dioxide]", "values": [{"measurement": "Phytotoxicity to corn", "setting": "[1]", "result": "0 (100)"}, {"measurement": "Herbicidal efficacy (F): slender amaranth", "setting": "[2]", "result": "5 (0)"}, {"measurement": "Herbicidal efficacy (E): velvetleaf", "setting": "[3]", "result": "5 (0)"}, {"measurement": "Herbicidal efficacy (B): barnyard grass", "setting": "[4]", "result": "5 (0)"}, {"measurement": "Herbicidal efficacy (A): large crabgrass", "setting": "[5]", "result": "5 (0)"}, {"measurement": "Herbicidal efficacy (D): cocklebur", "setting": "[6]", "result": "5 (0)"}, {"measurement": "Herbicidal efficacy (C): green foxtail", "setting": "[7]", "result": "5 (0)"}]}
{"smiles": "CCn1ncc(C(=O)c2cc(C)c3c(c2C)C(C)CCS3(=O)=O)c1OS(=O)(=O)c1ccc(C)cc1", "note": "(stereo not shown) [Compound 52, 4,5,8-trimethyl-6-(1-ethyl-5-p-toluenesulfonyloxypyrazol-4-yl)carbonylthiochroman-1,1-dioxide]", "values": [{"measurement": "Phytotoxicity to corn", "setting": "[1]", "result": "0 (100)"}, {"measurement": "Herbicidal efficacy (F): slender amaranth", "setting": "[2]", "result": "5 (0)"}, {"measurement": "Herbicidal efficacy (E): velvetleaf", "setting": "[3]", "result": "5 (0)"}, {"measurement": "Herbicidal efficacy (B): barnyard grass", "setting": "[4]", "result": "5 (0)"}, {"measurement": "Herbicidal efficacy (A): large crabgrass", "setting": "[5]", "result": "5 (0)"}, {"measurement": "Herbicidal efficacy (D): cocklebur", "setting": "[6]", "result": "5 (0)"}, {"measurement": "Herbicidal efficacy (C): green foxtail", "setting": "[7]", "result": "5 (0)"}]}
